Assay results reported in patent US20260248879A1, “METHODS OF USING A GCG/GLP1 CO-AGONIST FOR THERAPY” (ELI LILLY AND COMPANY, priority 2022, published 2026).
Marks after values point to notes of the source that are not given here.

Tests used:
[1] = test system: patients with T2DM; test: Example 1 study: gastric emptying (acetaminophen PK); format: in vivo, human
Excerpt: Acetaminophen is a well-established marker for the rate and extent of gastric emptying. It is rapidly absorbed from the duodenum upon release from the stomach. A delay in gastric emptying is reflected in the alterations to the concentration-time profile of acetaminophen, specifically, decreasing its Cmax and increasing time of maximum observed drug concentration (tmax) without altering the extent (total drug amount) absorbed. An oral solution dose of approximately 1 g acetaminophen is considered to be sufficient for bioanalytical detection and is administered as indicated below in respect of Cohorts 1 and 2. […] Concentrations of acetaminophen are assayed using a validated LC/MS method. Bioanalytical samples collected to measure acetaminophen concentrations are retained for a maximum of 2 years following last patient visit for the study.
In respect of Cohort 1, gastric emptying is assessed at baseline and Days 2 and 79.
In respect of Cohort 2, gastric emptying is assessed at baseline and Days 2 and 107.
The PK parameters of acetaminophen were compared between treatment groups to determine the rate and extent of gastric emptying. Prior to dosing with Compound 1, the PK profiles of acetaminophen on Day −1 were similar between the treatment groups. Within treatment groups, the Cmax of acetaminophen decreased from Day −1 during 12 weeks of multiple dosing with Compound 1. The Cmax of acetaminophen was lowest on Day 2 in both treatment groups. However, the change from baseline Cmax of acetaminophen increased at Day 107.

[2] = test system: individuals with obesity; test: Example 2 study: adverse events; format: in vivo, human
Excerpt: This study is designed to evaluate the safety, tolerability, PD and PK of dose to higher doses of Compound 1 in individuals with obesity. The Multiple Ascending Dose (MAD) study is a randomized, investigator- and participant-blind, placebo-controlled, multiple-ascending dose, single- or multi-site study conducted in individuals with obesity (i.e., females or males aged 18-70 years, inclusive, a BMI in the range of 27 kg/m^2 to 50 kg/m^2). Participants should have stable body weight for at least 3 months prior to the initiation of the study.
Dose of Compound 1 is assessed with weekly dosing over 20 weeks in 2 cohorts. Each cohort comprises 12 patients-nine patients are administered Compound 1 and three patients are administered placebo.
The dose for Cohort 1 is as follows: • 1.5 mg Compound 1 for 2 weeks; • 3.0 mg Compound 1 for 2 weeks; • 6.0 mg Compound 1 for 4 weeks; • 8.0 mg Compound 1 for 4 weeks; • 12.0 mg Compound 1 for 4 weeks; and • 16.0 mg Compound 1 for 4 weeks.
The dose for Cohort 2 is as follows: • 2.0 mg Compound 1 for 3 weeks; • 4.0 mg Compound 1 for 3 weeks; • 6.0 mg Compound 1 for 3 weeks; • 8.0 mg Compound 1 for 3 weeks; • 10.0 mg Compound 1 for 2 weeks; • 13.0 mg Compound 1 for 2 weeks, and • 16.0 mg Compound 1 for 4 weeks.
Safety parameters assessed during the study include: AEs (with special interest to GI AEs such as nausea, vomiting, and diarrhea), laboratory parameters, physical examinations/medical assessments, vital signs and ECGs, BW, injection site reactions, hypersensitivity reactions, and glucose monitoring (with special attention to hypoglycemia).

[3] = Example 1 study: pharmacokinetics, population PK modeling; conditions: for AUC(0-168)ss, geometric mean (CV %) / Cmax, ss, geometric mean: model-predicted steady state
Excerpt: Up to two samples may be collected at additional time points during the study if warranted and agreed upon between both the investigator and sponsor.
All available PK data is utilized for model development.

[4] = test system: patients with T2DM; test: Example 1 study: HbA1c; format: in vivo, human
Excerpt: This study is a Phase 1, single-site, patient- and investigator-blinded, placebo controlled, randomized, non-crossover, multiple-ascending dose study with titration in each cohort in patients with T2DM to investigate the safety, tolerability, PK, and PD of the GLP-1/glucagon co-agonist peptide of SEQ ID NO:1 (Compound 1) administered as multiple SC injections QW for 12 weeks in Cohort 1 and 16 weeks in Cohort 2.
The first dosing regimen (also referred to as Cohort 1) is 12 weeks in duration and requires dose increments of 1.5 mg starting from 1.5 mg: • 1.5 mg QW Compound 1 for 4 weeks; • 3.0 mg QW Compound 1 for 4 weeks; and • 4.5 mg QW Compound 1 for 4 weeks.
The second dosing regimen (also referred to as Cohort 2) is 16 weeks in duration and requires dose increments of 2 mg starting from 2 mg: • 2 mg QW Compound 1 for 3 weeks; • 4 mg QW Compound 1 for 3 weeks; • 6 mg QW Compound 1 for 3 weeks; • 8 mg QW Compound 1 for 3 weeks; and • 10 mg QW Compound 1 for 4 weeks.
In respect of Cohort 1, HbA1c levels are determined at baseline and Days 1, 29, 57 and 78. In respect of Cohort 2, HbA1c is measured at baseline and Days 1, 22, 43, 64, 85 and 106.

## CC(C)C[C@H](NC(=O)[C@H](CC(C)C)NC(=O)[C@H](Cc1c[nH]c2ccccc12)NC(=O)[C@H](CCC(=O)O)NC(=O)[C@@H](NC(=O)[C@H](Cc1ccccc1)NC(=O)[C@H](CCC(=O)O)NC(=O)[C@H](CCCCNC(=O)COCCOCCNC(=O)COCCOCCNC(=O)CC[C@H](NC(=O)CCCCCCCCCCCCCCCCCCC(=O)O)C(=O)O)NC(=O)[C@H](C)NC(=O)[C@H](CCCCN)NC(=O)[C@H](CCCCN)NC(=O)[C@H](CCC(=O)O)NC(=O)[C@H](CC(=O)O)NC(=O)[C@H](CC(C)C)NC(=O)[C@H](Cc1ccc(O)cc1)NC(=O)[C@H](CCCCN)NC(=O)[C@H](CO)NC(=O)[C@H](Cc1ccc(O)cc1)NC(=O)[C@H](CC(=O)O)NC(=O)[C@H](CO)NC(=O)[C@@H](NC(=O)[C@H](Cc1ccccc1)NC(=O)[C@@H](NC(=O)CNC(=O)[C@H](CCC(N)=O)NC(=O)C(C)(C)NC(=O)[C@@H](N)Cc1c[nH]cn1)[C@@H](C)O)[C@@H](C)O)C(C)C)C(=O)N[C@@H](CCC(=O)O)C(=O)NCC(=O)NCC(=O)N1CCC[C@H]1C(=O)N[C@@H](CO)C(=O)N[C@@H](CO)C(=O)NCC(N)=O [Compound 1]
[1]; Cohort 1, Day 2
  acetaminophen Cmax, Change From Baseline (Est % change): (0.83) %
  acetaminophen tmax, Change From Baseline (Est % change): (1.06) %
[1]; Cohort 1, Day 2, Day −1 2.671
  acetaminophen tmax: 1.963 h
[1]; Cohort 1, Day 79
  acetaminophen Cmax, Change From Baseline (Est % change): (0.9) %
  acetaminophen tmax: 1.478 h
  acetaminophen tmax, Change From Baseline (Est % change): (0.8) %
[1]; Cohort 2, Day 2
  acetaminophen Cmax, Change From Baseline (Est % change): (0.79) %
  acetaminophen tmax, Change From Baseline (Est % change): (0.89) %
  acetaminophen tmax, Change From Baseline, Mean: 0.187 h
[1]; Cohort 2, Day 2, Day −1 1.214
  acetaminophen tmax: 1.423 h
[1]; Cohort 2, Day 107
  acetaminophen Cmax, Change From Baseline (Est % change): (1.18) %
  acetaminophen tmax: 0.909 h
  acetaminophen tmax, Change From Baseline (Est % change): (0.89) %
  acetaminophen tmax, Change From Baseline, Mean: 0.75 h
[2]; Example 2 study
  deaths: No deaths occurred
[2]; in vivo
  most common treatment-emergent adverse events: gastrointestinal in nature (nausea, vomiting, diarrhea)
  serious adverse events: No serious adverse events were observed
[3]; human, plasma, sc
  Vd/F: 9.52 L
[3]; 4.5 mg QW
  AUC(0-168)ss, geometric mean (CV %): 106000 (22.5%) ng · h/mL
  Cmax, ss, geometric mean: 698 ng/mL
[3]; 10 mg QW
  AUC(0-168)ss, geometric mean (CV %): 239000 (23.9%) ng · h/mL
  Cmax, ss, geometric mean: 1570 ng/mL
[3]; population PK model, 355 concentrations from 18 patients, SC QW
  Absorption rate constant, KA, population mean estimate: 0.0299 h⁻¹
[4]; Cohort 1 (1.5-4.5 mg QW), Day 29, baseline 8.52
  Change from Baseline in HbA1c: −0.70* %
[4]; Cohort 1, Day 57, baseline 8.52
  Change from Baseline in HbA1c: −1.45* %
[4]; Cohort 1, Day 78, baseline 8.52
  Change from Baseline in HbA1c: −1.80* %
[4]; Cohort 1, Day 106 (28 days after last dose), baseline 8.52
  Change from Baseline in HbA1c: −2.03* %
[4]; Cohort 1 and Cohort 2, Day 57 until Day 134
  HbA1c decrease from baseline compared to placebo: Statistically significant decreases
[4]; Cohort 2 (2-10 mg QW), Day 43, baseline 8.08
  Change from Baseline in HbA1c: −0.83* %
[4]; Cohort 2, Day 64, baseline 8.08
  Change from Baseline in HbA1c: −1.35* %
[4]; Cohort 2, Day 85, baseline 8.08
  Change from Baseline in HbA1c: −1.50* %
[4]; Cohort 2, Day 106, baseline 8.08
  Change from Baseline in HbA1c: −1.67* %
